The test system of data set [1] is A7R5 (rat aorta smooth muscle) cells. The experiment in a line: Intracellular Ca2+ measurements, Fluo-4 NW Calcium Assay Kit, KCl-induced [Ca2+]i increase. The note with it: for IC50: Rattus norvegicus, A7R5, read-out: Ca^2+ A7R5, IC50; for Ca^2+ antagonist effect compared with Verapamil: relative to Verapamil. It is filed as cell-based. As for the experimental part: Changes in intracellular [Ca^2+] concentration were studied using A7R5 (rat aorta smooth muscle) cells and Fluo-4 NW Calcium Assay Kit (“Invitrogen”, Sweden) according to manufacturer's instructions.
Changes in intracellular [Ca^2+]i concentration were studied using Fluo-4 NW Calcium Assay Kit (“Invitrogen”, Sweden) accordingly to manufacturer's instructions. The A7R5 (rat aorta smooth muscle) cells were grown at 37° C. in a humidified atmosphere with 5% CO2/95% air in DMEM medium containing 2 mM glutamine and supplemented with 10% FBS. The cells were seeded into 96 well plate at 10,000 cells/well and incubated for 72 h. The cells were loaded with […] for 45 min. The Fura-4NW loaded cells were pre-incubated in the dark for 15 minutes with tested compounds at concentrations from 0.8 to 100 μM. Then A7R5 cells were pre-treated with 1.5 mM CaCl2 for 5 minutes and KCl (50 mM) was added to A7R5 cells to induce [Ca^2+]i increase. Amlodipine, the well-known calcium channel inhibitor was used as the positive control.

Data set [2] can be described thus: Basal toxicity test, neutral red, alternative LD50 calculated from IC50. The note with it: mouse, LD50, alternative LD50 calculated by formula from IC50 in NIH 3T3 cells. As for the experimental part:
(§1) A low therapeutic index of chemotherapy agents is due to affecting not only cancer formation but also normal cells.
(§2) 9,000 NIH 3T3 cells/well were placed into 96-well plates for 24 h and then exposed to the test compound over a range of eight concentration (1-1000 μg/ml) for 24 h. Upon that, the cells were incubated with the neutral red dye for 4 h and then OD was determined at 540 nm. […] The IC50 values were calculated using the program Graph Pad Prism® 4.0

Data set [3] concerns NIH 3T3 (normal mouse fibroblasts). The data set is described as above. As to conditions: alternative LD50 calculated by formula from IC50 in NIH 3T3 cells, 24 h. As for the experimental part: as §1, §2
Another data set deals with P-glycoprotein (P-gp) (Homo sapiens, UniProt P08183). The data set is described as follows: Measurement of P-glycoprotein activity: rhodamine 123 accumulation in MES-SA and MES-SA/Dx5 cells. As for the experimental part:
(§3) Thieno[2,3-b]pyridines of the formula (I) were tested to reveal MDR-blocking activity.
About 50,000 cells/well of the human uterine sarcoma cell line MESSA and MES-SA/Dx5 were seeded into the 96-well plates and incubated for 24 h. The MDR modulators were incubated with the cells for 15 min. […] The EC50 values were calculated using the program Graph Pad Prism® 4.0.

The next data set addresses MRP1 (Homo sapiens, UniProt P33527). The data set is described as follows: cell-based. As for the experimental part: as §3
About 60,000 cells/well of the human lung carcinoma cell line H69 and H69AR were seeded into the 96-well plates and incubated for 24 h. The compounds were incubated with the cells for 15 min. […] The EC50 values was calculated using the program Graph Pad Prism® 4.0

Another data set deals with T1, BCRP1 (Homo sapiens, UniProt Q9UNQ0).
T1 sequence (Q9UNQ0 1-655): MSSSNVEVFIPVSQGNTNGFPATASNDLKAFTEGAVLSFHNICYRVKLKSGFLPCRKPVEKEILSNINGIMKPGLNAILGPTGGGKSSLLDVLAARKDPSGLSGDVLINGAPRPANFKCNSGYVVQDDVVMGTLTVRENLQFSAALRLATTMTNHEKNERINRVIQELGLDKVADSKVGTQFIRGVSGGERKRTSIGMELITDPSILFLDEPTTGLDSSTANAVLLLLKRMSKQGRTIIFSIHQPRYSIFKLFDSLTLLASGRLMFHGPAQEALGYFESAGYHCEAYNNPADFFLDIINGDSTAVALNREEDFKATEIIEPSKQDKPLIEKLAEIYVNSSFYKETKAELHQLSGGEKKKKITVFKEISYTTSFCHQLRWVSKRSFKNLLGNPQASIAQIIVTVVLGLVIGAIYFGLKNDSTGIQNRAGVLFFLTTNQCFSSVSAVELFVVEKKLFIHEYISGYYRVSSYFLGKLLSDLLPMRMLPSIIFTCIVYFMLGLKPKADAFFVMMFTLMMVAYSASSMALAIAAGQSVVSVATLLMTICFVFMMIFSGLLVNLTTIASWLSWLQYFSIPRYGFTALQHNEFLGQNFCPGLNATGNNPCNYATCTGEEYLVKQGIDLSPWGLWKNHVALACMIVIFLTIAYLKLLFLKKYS
The experiment in a line: cell-based. As for the experimental part:
as §3
About 50,000 cells/well of the MESSA and MES-SA/MX2 were seeded into the 96-well plates and incubated for 24 h. The MDR modulators were incubated with the cells for 15 min. […] The EC50 values were calculated using the program Graph Pad Prism® 4.0

This is an account of results in patent US9908893B2 (Latvian Institute of Organic Synthesis, priority 2013, dated 2018).

MRP1, sequence (P33527 whole entry): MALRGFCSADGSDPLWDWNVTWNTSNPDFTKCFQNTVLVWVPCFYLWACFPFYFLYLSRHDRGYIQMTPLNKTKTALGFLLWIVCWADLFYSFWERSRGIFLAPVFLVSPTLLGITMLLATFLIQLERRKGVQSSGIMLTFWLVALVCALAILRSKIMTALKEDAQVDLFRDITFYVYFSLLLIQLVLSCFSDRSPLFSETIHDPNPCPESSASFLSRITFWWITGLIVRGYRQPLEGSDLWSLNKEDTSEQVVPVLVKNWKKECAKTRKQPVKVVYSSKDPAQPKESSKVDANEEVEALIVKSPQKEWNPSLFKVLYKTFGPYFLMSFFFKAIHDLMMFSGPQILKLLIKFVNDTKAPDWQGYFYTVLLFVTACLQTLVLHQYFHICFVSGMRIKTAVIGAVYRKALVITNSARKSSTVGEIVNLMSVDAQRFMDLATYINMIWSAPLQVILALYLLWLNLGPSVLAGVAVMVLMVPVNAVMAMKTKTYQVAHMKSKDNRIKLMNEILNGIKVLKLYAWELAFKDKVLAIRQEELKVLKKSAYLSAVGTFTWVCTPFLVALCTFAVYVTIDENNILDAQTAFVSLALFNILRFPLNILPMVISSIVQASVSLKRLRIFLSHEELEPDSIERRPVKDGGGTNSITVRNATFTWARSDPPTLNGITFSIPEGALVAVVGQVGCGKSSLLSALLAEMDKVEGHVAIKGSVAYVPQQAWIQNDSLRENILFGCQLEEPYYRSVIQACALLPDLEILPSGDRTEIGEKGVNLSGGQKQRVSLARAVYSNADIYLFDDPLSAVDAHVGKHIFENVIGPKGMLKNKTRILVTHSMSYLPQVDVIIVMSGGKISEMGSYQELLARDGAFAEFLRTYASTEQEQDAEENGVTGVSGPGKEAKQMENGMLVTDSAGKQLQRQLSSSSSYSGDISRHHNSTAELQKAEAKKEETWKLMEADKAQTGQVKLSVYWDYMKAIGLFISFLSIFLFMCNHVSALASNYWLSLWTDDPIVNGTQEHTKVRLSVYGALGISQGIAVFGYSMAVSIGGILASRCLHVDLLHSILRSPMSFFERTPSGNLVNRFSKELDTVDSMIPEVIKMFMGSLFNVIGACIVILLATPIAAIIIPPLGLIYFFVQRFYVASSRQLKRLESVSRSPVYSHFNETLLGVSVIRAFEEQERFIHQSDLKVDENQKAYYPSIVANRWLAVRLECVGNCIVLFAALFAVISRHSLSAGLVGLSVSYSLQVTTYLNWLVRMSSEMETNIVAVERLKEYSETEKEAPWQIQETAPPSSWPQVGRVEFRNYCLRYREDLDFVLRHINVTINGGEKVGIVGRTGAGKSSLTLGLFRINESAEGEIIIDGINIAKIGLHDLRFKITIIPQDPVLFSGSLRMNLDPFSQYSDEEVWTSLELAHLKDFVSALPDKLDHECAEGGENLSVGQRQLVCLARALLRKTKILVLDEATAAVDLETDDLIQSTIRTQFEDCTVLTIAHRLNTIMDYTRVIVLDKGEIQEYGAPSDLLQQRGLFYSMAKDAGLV
P-glycoprotein (P-gp), sequence (P08183 whole entry): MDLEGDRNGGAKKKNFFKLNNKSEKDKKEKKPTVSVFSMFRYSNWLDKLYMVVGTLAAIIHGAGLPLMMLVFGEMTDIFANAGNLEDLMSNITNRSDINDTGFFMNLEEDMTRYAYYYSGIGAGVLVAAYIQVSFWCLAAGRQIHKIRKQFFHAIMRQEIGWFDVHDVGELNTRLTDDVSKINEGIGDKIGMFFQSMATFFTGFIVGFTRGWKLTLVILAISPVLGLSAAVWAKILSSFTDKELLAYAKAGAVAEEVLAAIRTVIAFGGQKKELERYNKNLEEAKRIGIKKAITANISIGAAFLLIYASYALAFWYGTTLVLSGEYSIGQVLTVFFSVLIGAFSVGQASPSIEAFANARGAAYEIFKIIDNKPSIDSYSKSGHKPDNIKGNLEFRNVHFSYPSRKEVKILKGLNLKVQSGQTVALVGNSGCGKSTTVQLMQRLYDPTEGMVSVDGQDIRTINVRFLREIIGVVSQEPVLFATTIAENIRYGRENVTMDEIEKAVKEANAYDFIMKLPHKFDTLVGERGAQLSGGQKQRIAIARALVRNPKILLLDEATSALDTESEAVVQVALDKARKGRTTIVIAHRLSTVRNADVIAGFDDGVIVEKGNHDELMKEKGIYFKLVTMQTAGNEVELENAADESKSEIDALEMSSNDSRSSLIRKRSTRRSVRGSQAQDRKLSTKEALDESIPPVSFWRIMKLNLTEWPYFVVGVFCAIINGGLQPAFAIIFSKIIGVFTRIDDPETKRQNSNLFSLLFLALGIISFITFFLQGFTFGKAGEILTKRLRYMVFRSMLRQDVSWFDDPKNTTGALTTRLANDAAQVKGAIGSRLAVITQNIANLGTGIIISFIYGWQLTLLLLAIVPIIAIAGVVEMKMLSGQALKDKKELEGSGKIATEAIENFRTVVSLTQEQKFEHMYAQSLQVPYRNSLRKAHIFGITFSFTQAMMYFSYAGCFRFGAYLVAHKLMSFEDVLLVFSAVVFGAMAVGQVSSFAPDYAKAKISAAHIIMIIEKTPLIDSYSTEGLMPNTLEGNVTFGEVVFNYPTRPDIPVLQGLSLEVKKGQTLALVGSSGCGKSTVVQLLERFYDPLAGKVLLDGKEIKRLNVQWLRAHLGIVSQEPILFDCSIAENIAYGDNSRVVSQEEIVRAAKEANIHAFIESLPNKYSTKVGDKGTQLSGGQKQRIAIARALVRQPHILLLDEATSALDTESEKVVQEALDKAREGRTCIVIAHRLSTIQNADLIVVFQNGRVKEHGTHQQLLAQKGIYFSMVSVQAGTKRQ

As to `COC(=O)c1c(C)nc2sc(C(=O)c3ccc(OC)cc3)c(N)c2c1-c1ccc(OC)c(OC)c1` [Compound 6, 3-Amino-4-(3,4-dimethoxyphenyl)-2-(4-methoxybenzoyl)-6-methyl-thieno[2,3-b]-pyridine-5-carboxylic acid methyl ester], in data set [1], the IC50 (commonly the point on the concentration scale where inhibition reaches its midpoint) was determined as 6 ± 0.8 µM. Besides, the “Ca^2+ antagonist effect compared with Verapamil” value in data set [1] (A7R5 cells) was “more than ten times lower”. The LD50 (commonly the dose at which mortality reaches 50%) at 24 h in data set [2] is over 2000 mg/kg. In addition, the LD50 in data set [3] is given as 2808 mg/kg.

Consider `CCOC(=O)c1c(C)nc2sc(C(=O)c3ccc(OC)cc3)c(N)c2c1-c1cc(OC)c(OC)c(OC)c1` [Compound 24, 3-Amino-2-(4-methoxybenzoyl)-6-methyl-4-(3,4,5-trimethoxyphenyl)thieno[2,3-b]-pyridine-5-carboxylic acid ethyl ester], for which the IC50 in data set [1] turned out to be 19 ± 3 µM. The “Ca^2+ antagonist effect compared with Verapamil” value in data set [1] (A7R5 cells) is on record as “more than ten times lower”. In data set [2], the LD50 at 24 h was over 2000 mg/kg. Further, in data set [3], the LD50 was over 2000 mg/kg.

`CCOC(=O)c1c(C)nc2sc(C(=O)c3ccc(OC)cc3OC)c(N)c2c1-c1cc(OC)c(OC)c(OC)c1` [Compound 25, 3-Amino-2-(2,4-dimethoxybenzoyl)-6-methyl-4-(3,4,5-trimethoxyphenyl)-thieno[2,3-b]pyridine-5-carboxylic acid ethyl ester]: the IC50 in data set [1] is 46 ± 1.4 µM. The “Ca^2+ antagonist effect compared with Verapamil” value in data set [1] (A7R5 cells) is recorded as “more than ten times lower”. Moreover, the LD50 at 24 h in data set [2] was over 2000 mg/kg. Besides, the LD50 in data set [3] is listed as over 2000 mg/kg.

With `CCOC(=O)c1c(C)nc2sc(C(=O)c3ccc(OC)cc3)c(N)c2c1-c1ccc2c(c1)OCO2` [Compound 42, 3-Amino-4-(benzo[1,3]dioxol-5-yl)-2-(4-methoxybenzoyl)-6-methylthieno[2,3-b]-pyridine-5-carboxylic acid ethyl ester], the EC50 (as a rule, the concentration that produces a half-maximal response) at P-glycoprotein (P-gp) turned out to be 20.4 ± 0.1 µM; on MRP1 it was 24.8 ± 1.2 µM; at BCRP1 it was 2.3 ± 0.4 µM. In data set [1], the IC50 was 18 ± 1 µM. Further, the LD50 at 24 h in data set [2] was 2010 mg/kg.

The molecule `COc1ccc(C(=O)c2sc3nc(-c4cc(OC)c(OC)c(OC)c4)cc(-c4cc(OC)c(OC)c(OC)c4)c3c2N)cc1` [Compound 48, 3-Amino-4,6-bis-(3,4,5-trimethoxyphenyl)-2-(4-methoxybenzoyl)thieno[2,3-b]-pyridine] displayed an EC50 at P-glycoprotein (P-gp) of 32.5 ± 2.1 µM. Also, the “MDR, EC50, MRP1” value on MRP1 (calcein AM assay, DOX resistant H69AR cells) is “No effect”. Moreover, at BCRP1 (Hoechst 33342, mitoxantrone resistant MES-SA/MX2 cells), the “MDR, EC50, BCRP1” value is “No effect”. In data set [1] (A7R5 cells, KCl (50 mM) induced [Ca2+]i increase, compounds 0.8 to 100 μM), the “Ca^2+ A7R5, IC50” value is given as “No effect”. In addition, the LD50 at 24 h in data set [2] was 3080 mg/kg.
